Data on 2 compounds can be found in patent publication US11618765B2, “Broad-spectrum antiviral nucleoside derivatives” (priority 2020, dated 2023).

For series [1], the target named is T1, HIV-reverse transcriptase (Human immunodeficiency virus type 1 group M subtype B, UniProt P04585). Put plainly: inhibition of HIV-reverse transcriptase. The series is classed as biochemical. Particulars: ratio of IC50 values. From the text: Another example of a pyrimidine nucleoside analog as a direct acting antiviral is imidine (dImd), a thymidine analog, [17]. […] Its monophosphate (dIMP) readily incorporated into proviral DNA in place of dTMP, preferentially opposite to adenine (A) in the viral RNA template and caused a decrease in the fidelity of replication at the incorporated sites, due to misincorporation.

Series [2] addresses T1, HIV-reverse transcriptase. The settings on record: read-out: IC50 for inhibition of HIV-reverse transcriptase; cited from earlier work.
The target of the next series is T2, Molt-4 DNA polymerase a (Homo sapiens, UniProt P09884).
T2 construct: host or cells: Molt-4
T2 sequence (P09884 whole entry): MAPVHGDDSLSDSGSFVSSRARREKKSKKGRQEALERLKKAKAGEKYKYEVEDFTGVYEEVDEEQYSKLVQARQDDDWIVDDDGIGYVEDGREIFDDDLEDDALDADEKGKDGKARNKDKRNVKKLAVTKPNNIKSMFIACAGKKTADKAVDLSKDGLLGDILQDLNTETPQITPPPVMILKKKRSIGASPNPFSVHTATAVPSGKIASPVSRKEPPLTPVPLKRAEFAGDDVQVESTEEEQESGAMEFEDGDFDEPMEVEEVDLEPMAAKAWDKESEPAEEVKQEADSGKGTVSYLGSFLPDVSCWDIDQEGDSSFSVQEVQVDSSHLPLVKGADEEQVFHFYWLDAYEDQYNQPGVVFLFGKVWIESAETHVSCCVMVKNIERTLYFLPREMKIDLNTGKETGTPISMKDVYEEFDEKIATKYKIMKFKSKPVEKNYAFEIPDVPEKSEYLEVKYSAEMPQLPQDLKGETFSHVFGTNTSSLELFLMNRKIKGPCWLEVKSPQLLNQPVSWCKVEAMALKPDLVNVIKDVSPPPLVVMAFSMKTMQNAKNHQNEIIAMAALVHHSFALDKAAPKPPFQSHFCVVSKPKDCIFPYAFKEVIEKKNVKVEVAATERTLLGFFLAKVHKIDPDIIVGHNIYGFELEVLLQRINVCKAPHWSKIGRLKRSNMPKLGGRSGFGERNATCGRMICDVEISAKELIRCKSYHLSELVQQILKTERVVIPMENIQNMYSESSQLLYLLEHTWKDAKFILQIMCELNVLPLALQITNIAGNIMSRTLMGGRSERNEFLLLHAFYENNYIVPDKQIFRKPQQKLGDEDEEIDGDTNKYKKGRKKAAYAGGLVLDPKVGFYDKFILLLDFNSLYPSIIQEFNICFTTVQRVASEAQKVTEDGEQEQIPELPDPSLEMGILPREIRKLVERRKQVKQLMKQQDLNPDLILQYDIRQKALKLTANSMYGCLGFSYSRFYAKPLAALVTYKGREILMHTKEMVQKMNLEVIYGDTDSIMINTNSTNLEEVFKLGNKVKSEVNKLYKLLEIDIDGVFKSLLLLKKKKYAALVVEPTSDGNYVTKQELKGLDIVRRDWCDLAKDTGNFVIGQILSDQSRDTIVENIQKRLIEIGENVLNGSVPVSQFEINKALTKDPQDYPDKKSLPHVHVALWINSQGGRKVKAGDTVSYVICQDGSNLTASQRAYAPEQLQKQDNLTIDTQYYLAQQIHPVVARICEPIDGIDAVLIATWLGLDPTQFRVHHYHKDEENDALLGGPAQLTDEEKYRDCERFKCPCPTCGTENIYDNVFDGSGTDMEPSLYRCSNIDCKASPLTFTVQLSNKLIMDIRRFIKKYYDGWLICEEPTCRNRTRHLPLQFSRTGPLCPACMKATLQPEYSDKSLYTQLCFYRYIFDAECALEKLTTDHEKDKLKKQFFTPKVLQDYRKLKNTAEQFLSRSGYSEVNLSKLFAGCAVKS
T2 sequence (Q14181 whole entry partner): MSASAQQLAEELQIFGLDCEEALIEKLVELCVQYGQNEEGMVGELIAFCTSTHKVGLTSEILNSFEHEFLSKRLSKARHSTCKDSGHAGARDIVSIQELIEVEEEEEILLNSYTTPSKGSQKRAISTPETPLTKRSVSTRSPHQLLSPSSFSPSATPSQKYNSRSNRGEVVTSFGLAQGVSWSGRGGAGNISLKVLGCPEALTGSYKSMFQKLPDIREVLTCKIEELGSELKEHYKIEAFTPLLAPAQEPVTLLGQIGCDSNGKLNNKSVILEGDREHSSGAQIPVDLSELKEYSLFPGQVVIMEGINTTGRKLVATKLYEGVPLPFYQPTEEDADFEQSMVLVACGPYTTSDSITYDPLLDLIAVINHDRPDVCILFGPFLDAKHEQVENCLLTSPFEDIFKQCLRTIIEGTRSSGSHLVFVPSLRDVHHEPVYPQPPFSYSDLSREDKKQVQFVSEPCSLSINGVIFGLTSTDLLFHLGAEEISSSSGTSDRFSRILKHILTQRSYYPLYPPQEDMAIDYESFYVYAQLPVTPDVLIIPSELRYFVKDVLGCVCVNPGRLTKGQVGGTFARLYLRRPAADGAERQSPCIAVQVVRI
T2 sequence (P49642 whole entry partner): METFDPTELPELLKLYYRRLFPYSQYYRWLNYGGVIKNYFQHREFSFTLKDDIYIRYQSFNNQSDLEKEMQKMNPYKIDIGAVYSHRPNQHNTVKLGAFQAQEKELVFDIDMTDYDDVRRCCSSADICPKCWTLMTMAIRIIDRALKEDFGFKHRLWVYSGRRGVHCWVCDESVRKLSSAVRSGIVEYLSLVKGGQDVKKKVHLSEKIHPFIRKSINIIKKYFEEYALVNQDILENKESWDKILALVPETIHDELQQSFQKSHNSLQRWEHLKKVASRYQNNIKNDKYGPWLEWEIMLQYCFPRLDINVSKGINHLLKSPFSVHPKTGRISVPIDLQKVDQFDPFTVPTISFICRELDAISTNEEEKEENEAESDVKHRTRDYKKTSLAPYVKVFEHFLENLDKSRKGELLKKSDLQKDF
T2 sequence (P49643 whole entry partner): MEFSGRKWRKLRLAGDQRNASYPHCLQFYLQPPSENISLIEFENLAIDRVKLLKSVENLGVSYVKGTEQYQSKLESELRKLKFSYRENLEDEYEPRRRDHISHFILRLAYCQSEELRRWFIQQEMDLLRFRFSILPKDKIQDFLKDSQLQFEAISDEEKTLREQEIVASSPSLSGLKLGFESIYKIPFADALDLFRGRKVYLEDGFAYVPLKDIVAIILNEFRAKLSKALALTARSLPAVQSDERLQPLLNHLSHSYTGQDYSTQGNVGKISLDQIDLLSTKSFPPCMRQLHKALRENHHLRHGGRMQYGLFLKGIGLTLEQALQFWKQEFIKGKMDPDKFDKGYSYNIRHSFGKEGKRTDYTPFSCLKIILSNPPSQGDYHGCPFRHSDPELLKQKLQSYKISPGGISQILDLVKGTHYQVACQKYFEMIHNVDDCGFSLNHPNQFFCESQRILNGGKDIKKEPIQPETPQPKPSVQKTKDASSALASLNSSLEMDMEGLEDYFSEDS
The settings on record: read-out: IC50 for inhibition of Molt-4 DNA polymerase a; cited from earlier work.

The subject of a further series is human cells in culture. The settings on record: cited from earlier work.

A value given as a limit tells only on which side of the number the result lay.

What is called IC50 is the concentration needed to halve the response being measured. With `CC(=O)c1cn(C2CC(O)C(COP(=O)(O)OP(=O)(O)OP(=O)(O)O)O2)c(=O)[nH]1` (stereo not shown) [dImdTP], in series [1], the “selectivity (HIV-reverse transcriptase vs Molt-4 DNA polymerase a)” value was above 400 fold. The IC50 in series [2] is 0.038 µM; on Molt-4 DNA polymerase a, 17 µM.

On to `CC(=O)c1cn([C@H]2C[C@H](O)[C@@H](CO)O2)c(=O)[nH]1` [imidine, 1-(2-deoxy-β-D-ribofuranosyl)-4-acetylimidazolin-2-one], for which, in the series on human cells in culture, the cytotoxicity result was “no cytotoxicity”.
